Data taken from US6855348B2, “Insecticidal composition derived from plants” (priority 2000, dated 2005).
Where two headings read alike, the source gives them in different places.

Legend:
house dust mites = assay type: in vivo
Method: All tests were replicated four or more times. […] Means (±standard error) of untransformed data are reported. Controls received 40 μl of methanol.

[1] = tested on: Dermatophagoides pteronyssinus
Method: (§1) American house dust mite (Dermatophagoides farinae) and European house dust mite (Dermatophagoide pteronyssinus) were maintained at 75±5% RH (relative humidity) at 25±1° C., and were provided a feed mixture of fish meal and multi-vitamins in a ratio of 1 to 1 on a 12.5×10.5×5 cm container.
(§2) The starting concentration is important for the primary screening of bioactive compounds from plant extracts and oils. […] 1 mg of the methanol extracts or oils were suspended with 40 μl of methanol and were transferred to a colorless microtube (2 ml). The microtube was vertically shaken several times to disperse the contents to the wall and cap of the microtube and it was placed in a freeze dryer for 1 hour in order to volatilize the solvent. Twenty-five mites were placed on the prepared microtube, and all treatment groups were transferred to an incubator kept at […]. Active mites only were selected with a fine brush under a microscope. Mortalities were determined with a microscope at 24 hours and 48 hours after treatment. […] All tests were replicated four or more times. The percentage mortality was determined and transformed to arcsine square-root values for analysis of variance (ANOVA). Treatment means were compared and separated by Scheffe's test at the P=0.05 (SAS Institute, 1996). Means (±standard error) of untransformed data are reported. Controls received 40 μl of methanol.

Dermatophagoides farinae = tested on: Dermatophagoides farinae
Method: as §1, §2

[2] = tested on: mites inhabiting carpets and chairs; details: homes, cited from earlier work
[3] = 0.5 mg/tube, 48 hr, listed as Butyl isothiocyanate

CCCCN=C=S [butyl isothiocyanate]
acaricidal activity / mortality against two species of house dust mites (house dust mites; 1 mg/tube, 48 hours after treatment): 100%
acaricidal activity (house dust mites; at 0.4 mg and less): no significant acaricidal activity
Mortality (Means ± standard error, %) ([1]; 0.125 mg/tube, 24 hr): 1.0 ± 1.0 d %
Mortality (Means ± standard error, %) ([1]; 0.125 mg/tube, 48 hr): 2.0 ± 1.2 d %
Mortality (Means ± standard error, %) ([1]; 0.2 mg/tube, 24 hr): 7.0 ± 1.0 cd %
Mortality (Means ± standard error, %) ([1]; 0.2 mg/tube, 48 hr): 7.0 ± 1.0 cd %
Mortality (Means ± standard error, %) ([1]; 0.25 mg/tube, 24 hr): 21.0 ± 2.5 cd %
Mortality (Means ± standard error, %) ([1]; 0.25 mg/tube, 48 hr): 30.0 ± 8.7 bc %
Mortality (Means ± standard error, %) ([1]; 0.3 mg/tube, 24 hr): 32.0 ± 1.6 bc %
Mortality (Means ± standard error, %) ([1]; 0.3 mg/tube, 48 hr): 39.0 ± 2.5 bc %
Mortality (Means ± standard error, %) ([1]; 0.4 mg/tube, 24 hr): 39.0 ± 2.5 b %
Mortality (Means ± standard error, %) ([1]; 0.4 mg/tube, 48 hr): 45.0 ± 2.5 b %
Mortality (Means ± standard error, %) ([1]; 0.5 mg/tube, 24 hr): 92.0 ± 2.6 a %
Mortality (Means ± standard error, %) ([1]; 0.5 mg/tube, 48 hr): 96.0 ± 2.3 a %
Mortality (Means ± standard error, %) [1, 3]: 94%
Mortality (Means ± standard error, %) ([1]; 1 mg/tube, 24 hr): 99.0 a^c %
Mortality (Means ± standard error, %) ([1]; 1 mg/tube, 48 hr): 100 a %
Mortality (Means ± standard error, %) (Dermatophagoides farinae; 0.125 mg/tube, 24 hr): 1.0 ± 1.0 d %
Mortality (Means ± standard error, %) (Dermatophagoides farinae; 0.125 mg/tube, 48 hr): 2.0%
Mortality (Means ± standard error, %) (Dermatophagoides farinae; 0.2 mg/tube, 24 hr): 1.0 ± 1.0 e %
Mortality (Means ± standard error, %) (Dermatophagoides farinae; 0.2 mg/tube, 48 hr): 3.0%
Mortality (Means ± standard error, %) (Dermatophagoides farinae; 0.25 mg/tube, 24 hr): 20.0 ± 1.6 c %
Mortality (Means ± standard error, %) (Dermatophagoides farinae; 0.25 mg/tube, 48 hr): 27.0%
Mortality (Means ± standard error, %) (Dermatophagoides farinae; 0.3 mg/tube, 24 hr): 26.0 ± 2.0 c %
Mortality (Means ± standard error, %) (Dermatophagoides farinae; 0.3 mg/tube, 48 hr): 34.0%
Mortality (Means ± standard error, %) (Dermatophagoides farinae; 0.4 mg/tube, 24 hr): 44.0 ± 2.8 b %
Mortality (Means ± standard error, %) (Dermatophagoides farinae; 0.4 mg/tube, 48 hr): 48.0%
Mortality (Means ± standard error, %) (Dermatophagoides farinae; 0.5 mg/tube, 24 hr): 84.0 ± 5.2 a %
Mortality (Means ± standard error, %) (Dermatophagoides farinae; 0.5 mg/tube, 48 hr): 94.0%
Mortality (Means ± standard error, %) (Dermatophagoides farinae; [3]): 97%
Mortality (Means ± standard error, %) (Dermatophagoides farinae; 1 mg/tube, 24 hr): 99.0 ± 1.0 a %
Mortality (Means ± standard error, %) (Dermatophagoides farinae; 1 mg/tube, 48 hr): 100 a %

CCN(CC)c1nc(C)cc(OP(=S)(OC)OC)n1 [pirimiphos-methyl]
control of mites inhabiting carpets ([2]; carpets): 60%
control of mites inhabiting chairs ([2]; chairs): 50%
